# Source: patent publication US20250368628A1, “METHODS AND COMPOUNDS FOR MODULATING INHERITED GENETIC DISEASES” (Design Therapeutics, Inc., priority 2022, published 2025)
# Experiments:
# [1] = system: Myotonic Dystrophy 1 affected patient fibroblasts (Coriel GM04602; 1600 CTG repeats); experiment: DM1 foci reduction assay (EC50 assay; CAG10-Cy3 FISH, foci per nucleus); format: cell-based; conditions: Homo sapiens, Fibroblast; DM1 patient fibroblasts, 48 h treatment, foci per nucleus; read-out: DM1 EC50, 48 h
# Outline: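 GM04602 DM1 patient fibroblasts (1600 CTG repeats) seeded 24 h, then treated 48 h at 37 °C with an 8-point 1:3 dose series from 3 μM. Cells PFA-fixed, ethanol-permeabilized and hybridized overnight with 5 nM CAG10-Cy3 probe, DAPI counterstained. Imaged at 20×, 4 fields per well, as average foci per nucleus.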
# F35T cells = experiment: Foci reduction in FECD (CAG10-Cy3 FISH, foci per nucleus); format: cell-based; conditions: F35T cells, 48 h treatment, foci per nucleus; read-out: FECD EC50, 48 h
# Procedure: F35T cells were cultured in media containing Opti-MEM (ThermoFisher) supplemented with 8% FBS, 20 μg/mL ascorbic acid, […] CaCl2, 0.08% chondroitin sulfate, 1×Pen/Strep, 100 μg/mL bovine pituitary extract, 5 ng/mL epidermal growth factor, and 20 ng/mL nerve growth factor. Throughout the culture, cells were maintained in an incubator at 37° C. and 5% CO2. Media was refreshed every 48 hours. Once cells reached adequate confluency, they were harvested and seeded in 96 well plates with a density of 5000 cells per well in 200 μL of the supplemented Opti-MEM media. Cells were returned to the incubator and left to settle for 24 hours at 37° C. and 5% CO2. Cells were then treated in 8-point dose response with compounds or negative controls and incubated for 48 hours at 37° C. and 5% CO2. After treatment, cells were fixed with 4% PFA for 20 minutes at room temperature, followed by permeabilization with 70% ethanol. Cells were incubated at −20° C. for a minimum of 1 hour and maximum of 72 hours, after which the ethanol was removed, and cells were washed with PBS. Cells were rehydrated with 30% formamide and 2×SSC buffer for 10 minutes at room temperature. Cells were then incubated overnight at 37° C. in the hybridization solution containing 30% formamide, 2×SSC, 55 mg/mL dextran sulfate, 2.75 mg/mL bovine serum albumin, 0.2 μg/mL Herring sperm DNA, 1% vanadyl-ribonucleoside complex, and 0.05% 10 μM CAG10-Cy3 probe. Cells were washed twice with 30% formamide in 2×SSC, incubating the cells while shaking with the second wash at 37° C. and 200 rpm for 60 minutes. Cells were stained with 5 mg/mL DAPI 1:1000 in PBS, incubating at room temperature for 5 minutes. Cells were then washed with PBS and sealed with adhesive foil, with each well containing a final volume of 150 μL PBS. Cells were imaged on a Cytation 5 and analyzed on a foci per nucleus basis.
Structure (SMILES),EC50 [1],EC50 (F35T cells)
Cn1cc(NC(=O)c2nc(NC(=O)CCNC(=O)c3cc(NC(=O)c4nccn4C)cn3C)cn2C)cc1C(=O)NCCCC(=O)Nc1cn(C)c(C(=O)NCCC(=O)Nc2cc(C(=O)Nc3cn(C)c(C(=O)NCCC(=O)NCCOCCOCCOCCN4CCC(C#CC#CC5CCN(C(=O)OC(C)(C)C)CC5)CC4)n3)n(C)c2)n1 [Compound B-17],< 100 nM,< 100 nM
Cn1cc(NC(=O)c2nc(NC(=O)CCNC(=O)c3cc(NC(=O)c4nccn4C)cn3C)cn2C)cc1C(=O)NCCCC(=O)Nc1cn(C)c(C(=O)NCCC(=O)Nc2cc(C(=O)Nc3cn(C)c(C(=O)NCCC(=O)NCCOCCOCCOCCN4CCC(C#CC#CC5CCNCC5)CC4)n3)n(C)c2)n1 [Compound B-18],100 to 500 nM,100 to 500 nM
Cn1cc(NC(=O)c2nc(NC(=O)CCNC(=O)c3cc(NC(=O)c4nccn4C)cn3C)cn2C)cc1C(=O)NCCCC(=O)Nc1cn(C)c(C(=O)NCCC(=O)Nc2cc(C(=O)Nc3cn(C)c(C(=O)NCCC(=O)NCCOCCN4CCC(C#CC#CC5CCN(C(=O)OC(C)(C)C)CC5)CC4)n3)n(C)c2)n1 [Compound B-19],< 100 nM,100 to 500 nM
Cn1cc(NC(=O)c2nc(NC(=O)CCNC(=O)c3cc(NC(=O)c4nccn4C)cn3C)cn2C)cc1C(=O)NCCCC(=O)Nc1cn(C)c(C(=O)NCCC(=O)Nc2cc(C(=O)Nc3cn(C)c(C(=O)NCCC(=O)NCCOCCN4CCC(C#CC#CC5CCNCC5)CC4)n3)n(C)c2)n1 [Compound B-20],500 to 1000 nM,500 to 1000 nM
Cn1cc(NC(=O)c2nc(NC(=O)CCNC(=O)c3cc(NC(=O)c4nccn4C)cn3C)cn2C)cc1C(=O)NCCCC(=O)Nc1cn(C)c(C(=O)NCCC(=O)Nc2cc(C(=O)Nc3cn(C)c(C(=O)NCCC(=O)NCCOCCOCCOCCOCCN4CCN(C5CCN(C(=O)OCc6ccccc6)CC5)CC4)n3)n(C)c2)n1 [Compound B-21],100 to 500 nM,100 to 500 nM
Cn1cc(NC(=O)c2nc(NC(=O)CCNC(=O)c3cc(NC(=O)c4nccn4C)cn3C)cn2C)cc1C(=O)NCCCC(=O)Nc1cn(C)c(C(=O)NCCC(=O)Nc2cc(C(=O)Nc3cn(C)c(C(=O)NCCC(=O)NCCOCCOCCOCCOCCN4CCN(C5CCNCC5)CC4)n3)n(C)c2)n1 [Compound B-22],100 to 500 nM,100 to 500 nM
Cn1cc(NC(=O)c2nc(NC(=O)CCNC(=O)c3cc(NC(=O)c4nccn4C)cn3C)cn2C)cc1C(=O)NCCCC(=O)Nc1cn(C)c(C(=O)NCCC(=O)Nc2cc(C(=O)Nc3cn(C)c(C(=O)NCCC(=O)N4CCC(N5CCN(CCOCCOCCOCCOCCNC(=O)OC(C)(C)C)CC5)CC4)n3)n(C)c2)n1 [Compound B-23],100 to 500 nM,> 1000 nM
Cn1cc(NC(=O)c2nc(NC(=O)CCNC(=O)c3cc(NC(=O)c4nccn4C)cn3C)cn2C)cc1C(=O)NCCCC(=O)Nc1cn(C)c(C(=O)NCCC(=O)Nc2cc(C(=O)Nc3cn(C)c(C(=O)NCCC(=O)NCCOCCOCCOCCN4CCN(C5CCN(c6ccc([N+](=O)[O-])cc6)CC5)CC4)n3)n(C)c2)n1 [Compound B-25],500 to 1000 nM,> 1000 nM
Cn1cc(NC(=O)c2nc(NC(=O)CCNC(=O)c3cc(NC(=O)c4nccn4C)cn3C)cn2C)cc1C(=O)NCCCC(=O)Nc1cn(C)c(C(=O)NCCC(=O)Nc2cc(C(=O)Nc3cn(C)c(C(=O)NCCC(=O)N4CCN(CCOCCOCCOCCOCCNC(=O)OC(C)(C)C)CC4)n3)n(C)c2)n1 [Compound B-27],100 to 500 nM,100 to 500 nM
Cn1cc(NC(=O)c2nc(NC(=O)CCNC(=O)c3cc(NC(=O)c4nccn4C)cn3C)cn2C)cc1C(=O)NCCCC(=O)Nc1cn(C)c(C(=O)NCCC(=O)Nc2cc(C(=O)Nc3cn(C)c(C(=O)NCCC(=O)N4CCN(CCOCCOCCOCCOCCN)CC4)n3)n(C)c2)n1 [Compound B-28],500 to 1000 nM,500 to 1000 nM
Cn1cc(NC(=O)c2nc(NC(=O)CCNC(=O)c3cc(NC(=O)c4nccn4C)cn3C)cn2C)cc1C(=O)NCCCC(=O)Nc1cn(C)c(C(=O)NCCC(=O)Nc2cc(C(=O)Nc3cn(C)c(C(=O)NCCC(=O)N4CCC(N5CCN(C(=O)OC(C)(C)C)CC5)CC4)n3)n(C)c2)n1 [Compound B-30],100 to 500 nM,< 100 nM
Cn1cc(NC(=O)c2nc(NC(=O)CCNC(=O)c3cc(NC(=O)c4nccn4C)cn3C)cn2C)cc1C(=O)NCCCC(=O)Nc1cn(C)c(C(=O)NCCC(=O)Nc2cc(C(=O)Nc3cn(C)c(C(=O)NCCC(=O)N4CCC(N5CCNCC5)CC4)n3)n(C)c2)n1 [Compound B-31],< 100 nM,100 to 500 nM
Cn1cc(NC(=O)c2nc(NC(=O)CCNC(=O)c3cc(NC(=O)c4nccn4C)cn3C)cn2C)cc1C(=O)NCCCC(=O)Nc1cn(C)c(C(=O)NCCC(=O)Nc2cc(C(=O)Nc3cn(C)c(C(=O)NCCC(=O)N4CCN(C5CCN(C(=O)OCc6ccccc6)CC5)CC4)n3)n(C)c2)n1 [Compound B-32],< 100 nM,< 100 nM
CN(C)CCCNC(=O)CCNC(=O)c1nc(NC(=O)c2cc(NC(=O)CCNC(=O)c3nc(NC(=O)CCCNC(=O)c4cc(NC(=O)c5nc(NC(=O)CCNC(=O)c6cc(NC(=O)c7nccn7C)cn6C)cn5C)cn4C)cn3C)cn2C)cn1C [Compound B-33],100 to 500 nM,100 to 500 nM
CN(CCCNC(=O)CCNC(=O)c1nc(NC(=O)c2cc(NC(=O)CCNC(=O)c3nc(NC(=O)CCCNC(=O)c4cc(NC(=O)c5nc(NC(=O)CCNC(=O)c6cc(NC(=O)c7nccn7C)cn6C)cn5C)cn4C)cn3C)cn2C)cn1C)CCCNC(=O)c1cccc(C(=O)O)c1 [Compound B-35],500 to 1000 nM,100 to 500 nM
CN1CCN(CCCNC(=O)CCNC(=O)c2nc(NC(=O)c3cc(NC(=O)CCNC(=O)c4nc(NC(=O)CCCNC(=O)c5cc(NC(=O)c6nc(NC(=O)CCNC(=O)c7cc(NC(=O)c8nccn8C)cn7C)cn6C)cn5C)cn4C)cn3C)cn2C)CC1 [Compound B-36],100 to 500 nM,100 to 500 nM
Cn1cc(NC(=O)c2nc(NC(=O)CCNC(=O)c3cc(NC(=O)c4nccn4C)cn3C)cn2C)cc1C(=O)NCCCC(=O)Nc1cn(C)c(C(=O)NCCC(=O)Nc2cc(C(=O)Nc3cn(C)c(C(=O)NCCC(=O)NCCCN4CCOCC4)n3)n(C)c2)n1 [Compound B-37],100 to 500 nM,100 to 500 nM
Cn1cc(NC(=O)c2nc(NC(=O)CCNC(=O)c3cc(NC(=O)c4nccn4C)cn3C)cn2C)cc1C(=O)NCCCC(=O)Nc1cn(C)c(C(=O)NCCC(=O)Nc2cc(C(=O)Nc3cn(C)c(C(=O)NCCC(=O)NCCCN4CCCCC4)n3)n(C)c2)n1 [Compound B-38],100 to 500 nM,> 1000 nM
CCCCCNC(=O)CCNC(=O)c1nc(NC(=O)c2cc(NC(=O)CCNC(=O)c3nc(NC(=O)CCCNC(=O)c4cc(NC(=O)c5nc(NC(=O)CCNC(=O)c6cc(NC(=O)c7nccn7C)cn6C)cn5C)cn4C)cn3C)cn2C)cn1C [Compound B-39],< 100 nM,< 100 nM
CN(C)CCOCCNC(=O)CCNC(=O)c1nc(NC(=O)c2cc(NC(=O)CCNC(=O)c3nc(NC(=O)CCCNC(=O)c4cc(NC(=O)c5nc(NC(=O)CCNC(=O)c6cc(NC(=O)c7nccn7C)cn6C)cn5C)cn4C)cn3C)cn2C)cn1C [Compound B-42],100 to 500 nM,100 to 500 nM
CCCNC(=O)c1nc(NC(=O)c2cc(NC(=O)CCNC(=O)c3nc(NC(=O)CCCNC(=O)c4cc(NC(=O)c5nc(NC(=O)CCNC(=O)c6cc(NC(=O)c7nccn7C)cn6C)cn5C)cn4C)cn3C)cn2C)cn1C [Compound B-43],< 100 nM,< 100 nM
CCCNC(=O)c1nc(NC(=O)CCNC(=O)c2cc(NC(=O)c3nc(NC(=O)CCCNC(=O)c4cc(NC(=O)c5nc(NC(=O)CCNC(=O)c6cc(NC(=O)c7nccn7C)cn6C)cn5C)cn4C)cn3C)cn2C)cn1C [Compound B-44],> 1000 nM,> 1000 nM
